Measurements published in patent publication EP0755942B1, “N-AMIDINO […]” (DAIICHI PHARMACEUTICAL CO., LTD., priority 1994, dated 1995).

What was measured:
[1] = system: Mice; assay: analgesic activity by pressure stimulation method (tail base); assay type: in vivo; conditions: dose that induced 50 percent of % of MPE; for ED50(mg/kg) s.c.: subcutaneous administration (skin in the backs); for ED50(mg/kg) p.o.: oral administration
Description: The analgesic activities of the peptide derivatives of the present invention were evaluated by pressure stimulation method. Mice were subjected to pressure stimulation at the bases of their tails at the rate of 10 mmHg/second. […] For the experiments, mice that normally responded to a pressure of 40-50 mmHg were used. The maximum stimulating pressure was 100 mmHg. Analgesic activity was calculated as percent of maximum possible effect (% of MPE) according to the equation: % of MPE =(Pt - Po)/(Pc - Po)× 100 [formula] wherein Po is the pain reaction threshold before the administration of a drug; Pt is the pain reaction threshold "t" minutes after the administration of the drug; and Pc is the maximum stimulating pressure. ED50 values were calculated based on dose response curves as doses that induced 50 percent of % of MPE and analgesic activities of the drugs were compared.

[2] = intraventricular administration, relative to morphine; cited from earlier work
[3] = cited from earlier work

Compound | ED50(mg/kg) s.c. [1] [mg/kg] | ED50(mg/kg) p.o. [1] [mg/kg] | also measured
CN(CC(N)=O)C(=O)[C@H](Cc1ccccc1)NC(=O)[C@@H](CCCNC(=N)N)NC(=O)[C@H](Cc1ccc(O)cc1)NC(=N)N [H2NC(NH)-Tyr-(D)Arg-Phe-N(CH3)CH2CONH2] | 0.27 |  | 
CN(C)C(=O)[C@H](Cc1ccccc1)NC(=O)[C@@H](CCCNC(=N)N)NC(=O)[C@H](Cc1ccc(O)cc1)NC(=N)N [H2NC(NH)-Tyr-(D)Arg-Phe-N(Me)2] | 1.22 |  | 
CCN(CCC(=O)O)C(=O)[C@H](Cc1ccccc1)NC(=O)[C@@H](CCCNC(=N)N)NC(=O)[C@H](Cc1ccc(O)cc1)NC(=N)N [H2NC(NH)-Tyr-D-Arg-Phe-N(CH2CH3)CH2CH2COOH] | 0.15 | 16.0 | 
COC(=O)CCN(C)C(=O)[C@H](Cc1ccccc1)NC(=O)[C@@H](CCCNC(=N)N)NC(=O)[C@H](Cc1ccc(O)cc1)NC(=N)N [H2NC(NH)-Tyr-D-Arg-Phe-N(CH3)CH2CH2COOCH3] | 0.12 | 8.9 | 
CN(CCC(=O)O)C(=O)[C@H](Cc1ccccc1)NC(=O)[C@@H](CCCNC(=N)N)NC(=O)[C@H](Cc1ccc(O)cc1)NC(=N)N [H2NC(NH)-Tyr-D-Arg-Phe-N(CH3)CH2CH2COOH] | 0.10 | 6.6 | 
CN(CC(=O)O)C(=O)[C@H](Cc1ccccc1)NC(=O)[C@@H](CCCNC(=N)N)NC(=O)[C@H](Cc1ccc(O)cc1)NC(=N)N [H2NC(NH)-Tyr-D-Arg-Phe-N(CH3)CH2COOH] | 0.39 | 17.8 | 
N=C(N)NCCC[C@@H](NC(=O)[C@H](Cc1ccc(O)cc1)NC(=N)N)C(=O)N[C@@H](Cc1ccccc1)C(=O)NCCCO [H2NC(NH)-Tyr-D-Arg-Phe-NHCH2CH2CH2OH] | 0.88 |  | 
N=C(N)NCCC[C@@H](NC(=O)[C@H](Cc1ccc(O)cc1)NC(=N)N)C(=O)N[C@@H](Cc1ccccc1)C(=O)NCCC(N)=O [H2NC(NH)-Tyr-D-Arg-Phe-NHCH2CH2CONH2] | 0.13 | 10.7 | 
N=C(N)NCCC[C@@H](NC(=O)[C@H](Cc1ccc(O)cc1)NC(=N)N)C(=O)N[C@@H](Cc1ccccc1)C(=O)NCCC(=O)O [H2NC(NH)-Tyr-D-Arg-Phe-NHCH2CH2COOH] | 0.14 | 5.8 | 
Dermorphine |  |  | analgesic effect higher than morphine [2]: about 1,000 fold
Tyr-D-Arg^2-Phe-Sarcosine [TAPS] |  |  | potency relative to dermorphin ([3]; opioid effects such as analgesia, relative to dermorphin): about 6 times; duration of sufficient analgesic effects ([3]; oral administration): 3 h
